{"source": "ChEMBL document CHEMBL4419169", "about": "“Novel Ferroportin Inhibitors” (2018)", "type_in_all_cases": "functional", "key": {"Mus musculus [1]": {"system": "Mus musculus", "experiment": "Disease modifying capacity in mouse model of transfusion-independent beta-thalassemia intermedia assessed as increase in blood erythrocyte counts at 60 mg/kg, po BID for 20 days relative to control"}, "Mus musculus [2]": {"system": "Mus musculus", "experiment": "Disease modifying capacity in mouse model of transfusion-independent beta-thalassemia intermedia assessed as decrease in serum erythropoietin at 20 mg/kg, po BID for 20 days relative to control", "design": "scale not given: the % may be the effect or the level left"}, "Mus musculus [3]": {"system": "Mus musculus", "experiment": "Prevention of hyperferremia in iron overloaded beta2-microglobulin deficient female mouse assessed as reduction in serum iron level at 60 mg/kg, po measured after 3 hrs relative to control", "design": "scale not given: the % may be the effect or the level left"}, "Mus musculus [4]": {"system": "Mus musculus", "experiment": "Disease modifying capacity in mouse model of transfusion-independent beta-thalassemia intermedia assessed as increase in hematocrit levels at 20 mg/kg, po BID for 20 days relative to control"}, "Mus musculus [5]": {"system": "Mus musculus", "experiment": "Disease modifying capacity in mouse model of transfusion-independent beta-thalassemia intermedia assessed as decrease in blood reticulocyte counts at 20 mg/kg, po BID for 20 days relative to control", "design": "scale not given: the % may be the effect or the level left"}, "Mus musculus [6]": {"system": "Mus musculus", "experiment": "Induction of hypoferremia in wild type C57BL/6 mouse assessed as decrease in serum iron levels at 30 mg/kg, po measured after 3 hrs post dose", "design": "scale not given: the % may be the effect or the level left"}, "Mus musculus [7]": {"system": "Mus musculus", "experiment": "Decrease in serum iron in mouse model of transfusion-independent beta-thalassemia intermedia at 20 mg/kg, po BID for 20 days relative to control", "design": "scale not given: the % may be the effect or the level left"}, "Mus musculus [8]": {"system": "Mus musculus", "experiment": "Disease modifying capacity in mouse model of transfusion-independent beta-thalassemia intermedia assessed as decrease in relative spleen weight at 60 mg/kg, po BID for 20 days relative to control", "design": "scale not given: the % may be the effect or the level left"}, "Mus musculus [9]": {"system": "Mus musculus", "experiment": "Prevention of hyperferremia in iron overloaded beta2-microglobulin deficient male mouse assessed as reduction in serum iron level at 20 mg/kg, po measured after 3 hrs relative to control", "design": "scale not given: the % may be the effect or the level left"}, "Rattus norvegicus [10]": {"system": "Rattus norvegicus", "experiment": "Prevention of iron absorption in anemic Wistar rat model of iron absorption assessed as inhibition of increase in serum iron at 3 mg/kg, po pre-dosed 1 hr before ferrous sulfate dosing and measured 3 hours after iron dosing"}, "Mus musculus [11]": {"system": "Mus musculus", "experiment": "Prevention of hyperferremia in iron overloaded beta2-microglobulin deficient female mouse assessed as reduction in serum iron level at 20 mg/kg, po measured after 3 hrs relative to control", "design": "scale not given: the % may be the effect or the level left"}, "Mus musculus [12]": {"system": "Mus musculus", "experiment": "Decrease in serum iron in mouse model of transfusion-independent beta-thalassemia intermedia at 60 mg/kg, po BID for 20 days relative to control", "design": "scale not given: the % may be the effect or the level left"}, "Mus musculus [13]": {"system": "Mus musculus", "experiment": "Prevention of hyperferremia in iron overloaded beta2-microglobulin deficient male mouse assessed as reduction in serum iron level at 60 mg/kg, po measured after 3 hrs relative to control", "design": "scale not given: the % may be the effect or the level left"}, "Mus musculus [14]": {"system": "Mus musculus", "experiment": "Disease modifying capacity in mouse model of transfusion-independent beta-thalassemia intermedia assessed as decrease in [58Fe] spleen iron content at 60 mg/kg, po BID for 20 days relative to control", "design": "scale not given: the % may be the effect or the level left"}, "Mus musculus [15]": {"system": "Mus musculus", "experiment": "Disease modifying capacity in mouse model of transfusion-independent beta-thalassemia intermedia assessed as increase in blood erythrocyte counts at 20 mg/kg, po BID for 20 days relative to control"}, "Mus musculus [16]": {"system": "Mus musculus", "experiment": "Disease modifying capacity in mouse model of transfusion-independent beta-thalassemia intermedia assessed as decrease in bone marrow ROS levels level at 60 mg/kg, po BID for 20 days relative to control", "design": "scale not given: the % may be the effect or the level left"}, "Mus musculus [17]": {"system": "Mus musculus", "experiment": "Disease modifying capacity in mouse model of transfusion-independent beta-thalassemia intermedia assessed as decrease in leukocyte counts level at 20 mg/kg, po BID for 20 days relative to control", "design": "scale not given: the % may be the effect or the level left"}, "Mus musculus [18]": {"system": "Mus musculus", "experiment": "Disease modifying capacity in mouse model of transfusion-independent beta-thalassemia intermedia assessed as decrease in RDW level at 60 mg/kg, po BID for 20 days relative to control", "design": "scale not given: the % may be the effect or the level left"}, "Mus musculus [19]": {"system": "Mus musculus", "experiment": "Disease modifying capacity in mouse model of transfusion-independent beta-thalassemia intermedia assessed as decrease in RDW level at 20 mg/kg, po BID for 20 days relative to control", "design": "scale not given: the % may be the effect or the level left"}, "Mus musculus [20]": {"system": "Mus musculus", "experiment": "Disease modifying capacity in mouse model of transfusion-independent beta-thalassemia intermedia assessed as decrease in relative spleen weight at 20 mg/kg, po BID for 20 days relative to control", "design": "scale not given: the % may be the effect or the level left"}, "Mus musculus [21]": {"system": "Mus musculus", "experiment": "Induction of hypoferremia in wild type C57BL/6 mouse assessed as decrease in serum iron levels at 10 mg/kg, po measured after 3 hrs post dose", "design": "scale not given: the % may be the effect or the level left"}, "Rattus norvegicus [22]": {"system": "Rattus norvegicus", "experiment": "Prevention of iron absorption in anemic Wistar rat model of iron absorption assessed as inhibition of increase in serum iron at 10 mg/kg, po pre-dosed 1 hr before ferrous sulfate dosing and measured 3 hours after iron dosing"}, "Mus musculus [23]": {"system": "Mus musculus", "experiment": "Disease modifying capacity in mouse model of transfusion-independent beta-thalassemia intermedia assessed as increase in hematocrit levels at 60 mg/kg, po BID for 20 days relative to control"}, "Mus musculus [24]": {"system": "Mus musculus", "experiment": "Disease modifying capacity in mouse model of transfusion-independent beta-thalassemia intermedia assessed as decrease in bone marrow ROS levels level at 20 mg/kg, po BID for 20 days relative to control", "design": "scale not given: the % may be the effect or the level left"}, "Mus musculus [25]": {"system": "Mus musculus", "experiment": "Disease modifying capacity in mouse model of transfusion-independent beta-thalassemia intermedia assessed as decrease in [58Fe] spleen iron content at 20 mg/kg, po BID for 20 days relative to control", "design": "scale not given: the % may be the effect or the level left"}, "Rattus norvegicus [26]": {"system": "Rattus norvegicus", "experiment": "Prevention of iron absorption in anemic Wistar rat model of iron absorption assessed as inhibition of increase in serum iron at 30 mg/kg, po pre-dosed 1 hr before ferrous sulfate dosing and measured 3 hours after iron dosing"}, "Mus musculus [27]": {"system": "Mus musculus", "experiment": "Disease modifying capacity in mouse model of transfusion-independent beta-thalassemia intermedia assessed as prevention of liver [58Fe] loading at 60 mg/kg, po BID for 20 days relative to control"}, "Mus musculus [28]": {"system": "Mus musculus", "experiment": "Disease modifying capacity in mouse model of transfusion-independent beta-thalassemia intermedia assessed as prevention of liver [58Fe] loading at 20 mg/kg, po BID for 20 days relative to control"}, "Mus musculus [29]": {"system": "Mus musculus", "experiment": "Disease modifying capacity in mouse model of transfusion-independent beta-thalassemia intermedia assessed as decrease in leukocyte counts level at 60 mg/kg, po BID for 20 days relative to control", "design": "scale not given: the % may be the effect or the level left"}, "Mus musculus [30]": {"system": "Mus musculus", "experiment": "Induction of hypoferremia in wild type C57BL/6 mouse assessed as decrease in serum iron levels at 100 mg/kg, po measured after 3 hrs post dose", "design": "scale not given: the % may be the effect or the level left"}, "Mus musculus [31]": {"system": "Mus musculus", "experiment": "Disease modifying capacity in mouse model of transfusion-independent beta-thalassemia intermedia assessed as decrease in serum erythropoietin at 60 mg/kg, po BID for 20 days relative to control", "design": "scale not given: the % may be the effect or the level left"}}}
{"compound": "O=C(NCc1ncccc1F)c1cnc(C2CN(CCc3nc4ccccc4[nH]3)C2)o1", "values": [{"measurement": "Activity", "setting": "Mus musculus [1]", "result": 33, "unit": "%"}, {"measurement": "Activity", "setting": "Mus musculus [2]", "result": 4, "unit": "%"}, {"measurement": "Activity", "setting": "Mus musculus [3]", "result": 57, "unit": "%"}, {"measurement": "Activity", "setting": "Mus musculus [4]", "result": 0, "unit": "%"}, {"measurement": "Activity", "setting": "Mus musculus [5]", "result": 0, "unit": "%"}, {"measurement": "Activity", "setting": "Mus musculus [6]", "result": 26, "unit": "%"}, {"measurement": "Activity", "setting": "Mus musculus [7]", "result": 50, "unit": "%"}, {"measurement": "Activity", "setting": "Mus musculus [8]", "result": 47, "unit": "%"}, {"measurement": "Activity", "setting": "Mus musculus [9]", "result": 29, "unit": "%"}, {"measurement": "inhibition in vivo at 3 mg/kg", "setting": "Rattus norvegicus [10]", "result": -3, "unit": "%"}, {"measurement": "Activity", "setting": "Mus musculus [11]", "result": 27, "unit": "%"}, {"measurement": "Activity", "setting": "Mus musculus [12]", "result": 69, "unit": "%"}, {"measurement": "Activity", "setting": "Mus musculus [13]", "result": 66, "unit": "%"}, {"measurement": "Activity", "setting": "Mus musculus [14]", "result": 40, "unit": "%"}, {"measurement": "Activity", "setting": "Mus musculus [15]", "result": 0, "unit": "%"}, {"measurement": "Activity", "setting": "Mus musculus [16]", "result": 65, "unit": "%"}, {"measurement": "Activity", "setting": "Mus musculus [17]", "result": 29, "unit": "%"}, {"measurement": "Activity", "setting": "Mus musculus [18]", "result": 15, "unit": "%"}, {"measurement": "Activity", "setting": "Mus musculus [19]", "result": 0, "unit": "%"}, {"measurement": "Activity", "setting": "Mus musculus [20]", "result": 16, "unit": "%"}, {"measurement": "Activity", "setting": "Mus musculus [21]", "result": 9, "unit": "%"}, {"measurement": "inhibition in vivo at 10 mg/kg", "setting": "Rattus norvegicus [22]", "result": 29, "unit": "%"}, {"measurement": "Activity", "setting": "Mus musculus [23]", "result": 15, "unit": "%"}, {"measurement": "Activity", "setting": "Mus musculus [24]", "result": 13, "unit": "%"}, {"measurement": "Activity", "setting": "Mus musculus [25]", "result": 13, "unit": "%"}, {"measurement": "inhibition in vivo at 30 mg/kg", "setting": "Rattus norvegicus [26]", "result": 57, "unit": "%"}, {"measurement": "Activity", "setting": "Mus musculus [27]", "result": 47, "unit": "%"}, {"measurement": "Activity", "setting": "Mus musculus [28]", "result": 14, "unit": "%"}, {"measurement": "Activity", "setting": "Mus musculus [29]", "result": 55, "unit": "%"}, {"measurement": "Activity", "setting": "Mus musculus [30]", "result": 50, "unit": "%"}, {"measurement": "Activity", "setting": "Mus musculus [31]", "result": 27, "unit": "%"}]}
